Source: patent US20260234165A1, “MACROCYCLIC COMPOUNDS, PREPARATION METHOD THEREFOR, AND USE THEREOF” (GENFLEET THERAPEUTICS (SHANGHAI) INC., priority 2004, published 2026)
Read-outs that look alike come from different tables or passages of the source.

Key:
Assay type in all cases: cell-based, human
[1] = tested on: p-ERK in NCI-H441 cells (KRAS G12V mutation); test: Cell p-ERK assay (HTRF) in NCI-H441 cells
Experimental: (§1) AsPC-1 cells were purchased from ATCC, Cat. No. CRL-1682: NCI-H441 cells were purchased from ATCC, Cat. No. HTB-174: RPMI-1640 medium was purchased from Gibco, Cat. No. I1875-093: FBS was purchased from Gibco, Cat. No. 10099-141C: penicillin/streptomycin double-antibiotic solution (PS) was purchased from Gibco, Cat. No. 15140-122: trypsin (containing EDTA) was purchased from Gibco, Cat. No. 25200-072; DMSO was purchased from VWRAMRESCO, Cat. No. 0231-500ML; 96-well cell culture plates were purchased from Corning, Cat. No. 3599: white-bottomed, opaque 96-well plates were purchased from Cisbio, Cat. No. 66PL96025; Advance ERK phospho-T202/Y204 kit was purchased from Cisbio, Cat. No. 64AERPEH; cell counter was purchased from CHEMOMETEC, model: NC-200; microplate reader was purchased from PerkinElmer, model: EnVision.
(§2) AsPC-1, a human pancreatic cancer cell strain endogenously containing a KRAS^G12D mutation, was cultured in a complete medium containing RPMI-1640+10% FBS+1% PS. NCI-H441, a human non-small cell lung cancer cell strain endogenously containing a KRAS^G12V mutation, was cultured in a complete medium containing RPMI-1640+10% FBS+1% PS.
(§3) The cells were digested with trypsin (containing EDTA), collected in their corresponding complete media, and counted. The density of the cell suspensions was adjusted with their corresponding complete media, and 10000 AsPC-1 cells or 20000 NCI-H441 cells per well were seeded into a 96-well cell culture plate, with the volume of the medium in each well being 80 μL.
(§4) The cell culture plate was incubated in an incubator at 37° C. with 5% CO2 overnight. A series of 3.16-fold gradient dilutions of a 1000- compound stock solution were prepared with DMSO, and then diluted 200-fold with the complete medium described above to give 5′ compound stock solutions. On the day after cell seeding, 20 μL of the 5× compound stock solution was added to each cell culture well. As a result, the final concentration of the compound in the cell culture well became 1×, and the DMSO content in the well was 0.1%. In addition to the compound-treated wells described above, cell-containing DMSO control wells were also set. A complete medium containing 0.5% DMSO was added at 20 μL/well. After the mixture was well mixed, the culture plate was incubated in the incubator at 37° C. with 5% CO2 for another 3 h. The medium was then removed from the culture wells, and 50 μL of cell lysis buffer (from Advance ERK phospho-T202,Y204 kit) was added to each well. The mixture was well mixed and incubated for 30 min. Then, 16 μL of the mixture was transferred to a white-bottomed, opaque 96-well assay plate, and separately, 16 μL of cell lysis buffer was added to additional wells (serving as blank wells) in the assay plate. After the transfer was completed, 4 μL of p-ERK HTRF antibody mixture (from Advance ERK phospho-T202/Y204 kit) was added to each well of the assay plate, followed by a 4-hour incubation. The HTRF signal values (RLU) were then measured using a microplate reader, and the inhibition rate of the compound against p-ERK levels was calculated as follows: IR (%)=(RLUDMSO−RLUcompound)/(RLUDMSO−RLUblank)×100%, where RLUDMSO is the average HTRF signal value from the DMSO control well samples, RLUblank is the average HTRF signal value from the blank well samples, and RLUcompound is the HTRF signal value from the compound-treated well samples. Using an XLfit software, the IR (%) values were plotted against the logarithm of the compound concentrations, and the dose-response curves were fitted using the four-parameter method to calculate the IC50 values.

[2] = tested on: p-ERK in AsPC-1 cells (KRAS G12D mutation); test: Cell p-ERK assay (HTRF) in AsPC-1 cells
Experimental: as §1, §2, §3, §4

NCI-H441 cells = test: 3D cell proliferation assay (CellTiter Glo-3D), NCI-H441; details: medium with 2% FBS, read-out: H441 AP IC50
Source text: MIA PaCa-2 cells were purchased from ATCC, Cat. No. CRL-1420; AsPC-1 cells were purchased from ATCC, Cat. No. CRL-1682; NCI-H441 cells were purchased from ATCC, Cat. No. HTB-174: NCI-H1975 cells were purchased from ATCC. Cat. No. CRL-5908; DMEM medium was purchased from Gibco, Cat. No. 11995-065: RPMI-1040 medium was purchased from Gibco. Cat. No. H 18754093; FBS was purchased from Gibco, Cat. No. 10099-141C. penicillin, streptomycin double-antibiotic solution (PS) was purchased from Gibco, Cat. No. 15140-122; Horse serum was purchased from Gibco. Cat. No. 16050130: trypsin (containing EDTA) was purchased from Gibco, Cat. No. 25200-072; DMSO was purchased from VWRAMRESCO, Cat. No. 0231-500ML; 384-well cell culture plates were purchased from Corning, Cat. No. 3830; white-bottomed, opaque 384-well assay plates were purchased from Corning, Cat. No. 3570. CellTiter Glo-3D) kit was purchased from Promega. Cat. No. G9683; cell counter was purchased from CHEMOMETEC, model: NC-200: microplate reader was purchased from PerkinElmer, model: EnVision.
MIA PaCa-2, a human pancreatic cancer cell strain endogenously containing a KRAS^G12C mutation, was cultured in a complete medium containing DMEM+10% FBS+2.5% Horse serum+1% PS. AsPC-1, a human pancreatic cancer cell strain endogenously containing a […] mutation, was cultured in a complete medium containing RPMI-1640+10% FBS+1% PS. NCI-H441 cells, a human lung cancer cell strain endogenously containing a […] mutation, were cultured in a complete medium containing RPMI-1640+10% FBS+1% PS. NCI-H1975, a KRAS wild-type human lung cancer cell strain whose cell proliferation depends on KRAS activity, was cultured in a complete medium containing RPMI-1640+10% FBS+1% PS.
The cells were digested with trypsin (containing EDTA), collected in their respective low-serum complete media containing 2% FBS (for MIA Paca-2 cell culture: DMEM+2% FBS+0.5% Horse serum+1% PS), and counted. After the cell density was adjusted as required, 200 MIA PaCa-2 cells, 800 AsPC-1 cells, 800 NCI-H441 cells, or 400 NCI-H1975 cells per well were seeded into a 384-well cell culture plate, with the volume of the medium in each well being 45 μL. The cell culture plate was incubated in an incubator at 37° C. with 5% CO2, overnight. A series of 3.16-fold gradient dilutions of a 1000× compound stock solution were prepared with DMSO, and then diluted 100-fold with the complete medium containing 2% FBS described above to give 10- compound stock solutions. On the day after cell seeding, 5 μL of the 10- compound stock solution was added to each cell culture well. As a result, the final concentration of the compound in the cell culture well became 1×, and the DMSO content in the well was 0.1%. In addition to the compound-treated wells described above, cell-containing DMSO control wells (with 5 μL of the complete medium containing 1% DMSO added to each well) and cell-free medium control wells (containing 50 μL of the complete medium with 2% FBS) were also set. The culture plate was incubated in an incubator at 37° C. with 5% CO2 for another 5 days, and then 30 μL of CellTiter-Glo working solution was added to each well. The mixture was well mixed, incubated for 30 min, left to stand at room temperature for 30 min, and then transferred to a white-bottomed, opaque 384-well assay plate at 40 μL/well. The chemiluminescence values (RLU) were measured using a microplate reader, and the cell proliferation inhibition rate for each well was calculated: IR (%)=(RLUDMSO—RLUcompound)/(RLUDMSO−RLUblank)×100%, where RLUDMSO is the average RLU signal value from the DMSO control well samples, RLUblank is the average RLU signal value from the medium control well samples, and RLUcompound is the RLU signal value from the compound-treated well samples. […]

[3] = Homo sapiens, NCI-H441, 3 h, NCI-H441 cells, 3 h compound incubation, HTRF p-ERK T202/Y204, read-out: H441 p-ERK IC50
[4] = Homo sapiens, ASPC1, 3 h, AsPC-1 cells, 3 h compound incubation, HTRF p-ERK T202/Y204, read-out: AsPC-1 p-ERK IC50
[5] = NCI-H441 cells, 3 h compound incubation, HTRF p-ERK T202/Y204, read-out: H441 p-ERK IC50

| Compound | IC50 [1, 3] [nM] | IC50 [2, 4] [nM] | IC50 [1, 5] [nM] | further results |
| --- | --- | --- | --- | --- |
| CCn1c(-c2cc(C#CCN3CCS(=O)(=O)CC3)cnc2C(C)OC)c2c3cc(ccc31)-c1csc(n1)CC(NC(=O)CC1CC1)C(=O)N1CCCC(N1)C(=O)OCC(C)(C)C2 (atropisomer, axis not shown; (Ra)) [Compound Z962, 2-cyclopropyl-N-((6^3S,4S,Z)—(Ra)-1^2-(5-(3-(1,1-dioxidothiomorpholino)prop-1-yn-1-yl)-2-((S)-1-methoxyethyl)pyridin-3-yl)-1^1-ethyl-10,10-dimethyl-5,7-dioxo-6^1,6^2,6^3,6^4,6^5,6^6-hexahydro-1^1H-8-oxa-2(4,2)-thiazola-1(5,3)-indola-6(1,3)-pyridazinacycloundecaphane-4-yl)acetamide] | – | – | 0.15 | IC50 ([2]; AsPC-1 cells, 3 h compound incubation, HTRF p-ERK T202/Y204, read-out: AsPC-1 p-ERK IC50): 0.26 nM |
| CCn1c(-c2cc(C#CCN3CCC(O)(c4cccc(C)[n+]4[O-])CC3)cnc2[C@H](C)OC)c2c3cc(ccc31)-c1csc(n1)C[C@H](NC(=O)[C@H]1[C@H](C)[C@@H]1C)C(=O)N1CCC[C@H](N1)C(=O)OCC(C)(C)C2 (atropisomer, axis not shown; (Ra)) [Compound Z1055, 2-(1-(3-(5-((6^3S,4S,Z)-4-((r,2R,3S)-2,3-dimethylcyclopropane-1-carboxamido)-1^1-ethyl-10,10-dimethyl-5,7-dioxo-6^1,6^2,6^3,6^4,6^5,6^6-hexahydro-1^1H-8-oxa-2(4.2)-thiazola-1(5,3)-indola-6(1.3)-pyridazinacycloundecaphane-12-yl)-(Ra)-6-((S)-1-methoxyethyl)pyridin-3-yl)prop-2-yn-1-yl)-4-hydroxypiperidin-4-yl)-6-methylpyridine 1-oxide] | – | – | – | IC50 ([1]; Homo sapiens, NCI-H441, 3 h, read-out: H441 p-ERK IC50(nM)): 0.19 nM; IC50 ([2]; Homo sapiens, ASPC1, 3 h, read-out: AsPC-1 p-ERK IC50(nM)): 0.32 nM |
| CCn1c(-c2cc(C#CCN3CCCOCC3)cnc2[C@H](C)OC)c2c3cc(ccc31)-c1csc(n1)C[C@H](NC(=O)[C@H](C(C)C)N(C)[S@](C)(=O)=NC)C(=O)N1CCC[C@H](N1)C(=O)OCC(C)(C)C2 (single isomer, unassigned) [Compound Z912-1] | 2.61 | – | – | IC50 (NCI-H441 cells; Homo sapiens, NCI-H441, 3D cell proliferation (CellTiter Glo-3D)): 5.13 nM |

Now from value to compound, other results behind:

| IC50 [1, 3] [nM] | IC50 [2, 4] [nM] | IC50 [1, 5] [nM] | Compound | further results |
| --- | --- | --- | --- | --- |
| 0.16 | 0.27 | – | CCn1c(-c2cc(C#CCN3CCCOCC3)c[n+]([O-])c2C(C)C)c2c3cc(ccc31)-c1csc(n1)C[C@H](NC(=O)[C@H]1[C@H](C)[C@@H]1C)C(=O)N1CCC[C@H](N1)C(=O)OCC(C)(C)C2 (atropisomer, axis not shown; (Ra)) [Compound Z950, (1r,2R,3S)—N-((6^3S,4S,Z)—(Ra)-1^2-(5-(3-(1,4-oxazepan-4-yl)prop-1-yn-1-yl)-2-isopropylpyridin-1-oxide-3-yl)-1^1-ethyl-10,10-dimethyl-5,7-dioxo-6^1,6^2,6^3,6^4,6^5,6^6-hexahydro-1^1H-8-oxa-2(4,2)-thiazola-1(5,3)-indola-6(1,3)-pyridazinacycloundecaphane-4-yl)-2,3-dimethylcyclopropane-1-carboxamide] | – |
| 1.01 | 4.15 | – | CCn1c(-c2cc(C#CCN3CCC(C#N)CC3)cnc2[C@H](C)OC)c2c3cc(ccc31)-c1csc(n1)C[C@H](Nc1nnc3cc(C)ccn13)C(=O)N1CCC[C@H](N1)C(=O)OCC(C)(C)C2 (atropisomer, axis not shown; (Ra)) [Compound Z959] | – |
| – | – | 3.41 | CCn1c(-c2cc(C#CCN3CCCOCC3)cnc2[C@H](C)OC)c2c3cc(ccc31)-c1csc(n1)C[C@H](NC(=O)[C@H](C(C)C)N(C)[S@@](C)(=O)=NC)C(=O)N1CCC[C@H](N1)C(=O)OCC(C)(C)C2 (single isomer, unassigned) [Compound Z912-2] | IC50 (NCI-H441 cells; 3D cell proliferation (CellTiter Glo-3D)): 8.59 nM |
